Several values for one entry are separate records, joined by “and”; a condition that tells them apart may be missing. Identical values can stand only once. ± gives the uncertainty stated by the source.

We go through eleven compounds from the CheMixHub viscosity set.

In general, viscosity refers to the internal friction of a fluid under shear. In turn, `BrC(Br)(Br)Br` yielded a viscosity (298.15 K, 101 kPa) of 3.987 ± 0.049 mPa·s.
`C=CCn1cc[n+](C)c1.O=S(=O)([N-]S(=O)(=O)C(F)(F)F)C(F)(F)F` came in with a viscosity (298.15 K, 100 kPa) of 34.31 ± 1.1 mPa·s.
Compound `CC(=O)OCCC1CCCCC1` showed a viscosity (300 K, 101 kPa) of 2.54 ± 0.04 mPa·s; a viscosity (310 K, 101 kPa) of 2.07 ± 0.03 mPa·s; a viscosity (320 K, 101 kPa) of 1.72 ± 0.03 mPa·s.
Take `CC(O)CN(C)C` (stereo not drawn): the viscosity was 1.221 ± 0.017 mPa·s (303.15 K, 101 kPa); 1.097 ± 0.016 mPa·s (308.15 K, 101 kPa); 0.99 ± 0.015 mPa·s (313.15 K, 101 kPa); 0.902 ± 0.015 mPa·s (318.15 K, 101 kPa); 0.825 ± 0.014 mPa·s (323.15 K, 101 kPa).
Turning to `CC1CCCCC1=O` (stereo not drawn), the viscosity stood at 2.225 ± 0.05 mPa·s (303.15 K, 100 kPa); 2.225 ± 0.077 mPa·s (303.15 K, 101 kPa); 1.406 ± 0.039 mPa·s (303.15 K, 101.33 kPa); 2.168 ± 0.049 mPa·s (308.15 K, 100 kPa); 2.168 ± 0.075 mPa·s (308.15 K, 101 kPa); 2.111 ± 0.048 mPa·s (313.15 K, 100 kPa).
For the compound `CCC1CCCCC1`, the viscosity runs as follows: (298.15 K, 100 kPa) 0.797 ± 0.017 mPa·s and 0.792 ± 0.025 mPa·s and 0.801 ± 0.033 mPa·s; (303.15 K, 100 kPa) 0.747 ± 0.016 mPa·s and 0.741 ± 0.023 mPa·s; (308.15 K, 100 kPa) 0.705 ± 0.015 mPa·s and 0.697 ± 0.022 mPa·s and 0.701 ± 0.029 mPa·s; (313.15 K, 100 kPa) 0.662 ± 0.014 mPa·s and 0.65 ± 0.02 mPa·s and 0.664 ± 0.027 mPa·s; (318.15 K, 100 kPa) 0.627 ± 0.014 mPa·s and 0.617 ± 0.019 mPa·s; (323.15 K, 100 kPa) 0.585 ± 0.013 mPa·s and 0.57 ± 0.018 mPa·s and 0.586 ± 0.024 mPa·s.
`CCCCCCCCCO`: the viscosity is 9.587 ± 0.064 mPa·s and 7.614 ± 0.05 mPa·s (298 K, 100 kPa); 9.566 ± 0.13 mPa·s (298.15 K, 100 kPa); 8.965 ± 0.096 mPa·s and 9.692 ± 0.2 mPa·s (298.15 K, 101.3 kPa); 7.967 ± 0.11 mPa·s (303.15 K, 100 kPa); 7.375 ± 0.081 mPa·s (303.15 K, 101.3 kPa); 7.376 ± 0.076 mPa·s (303.15 K, 101.33 kPa). Moreover, the viscosity runs as follows: (308.15 K, 100 kPa) 6.59 ± 0.087 mPa·s and 6.675 ± 0.2 mPa·s; (308.15 K, 101.3 kPa) 6.114 ± 0.07 mPa·s and 6.494 ± 0.14 mPa·s; (318.15 K, 100 kPa) 4.852 ± 0.063 mPa·s and 4.814 ± 0.15 mPa·s; (323.15 K, 100 kPa) 4.179 ± 0.055 mPa·s and 4.145 ± 0.13 mPa·s.
On to `CCCCCCCC[n+]1ccn(C)c1.F[B-](F)(F)F`, for which the viscosity is 336.3 ± 28 mPa·s and 336.3 ± 22 mPa·s (298.15 K, 101 kPa); 257.5 ± 78 mPa·s (303.15 K, 101 kPa); 193.8 ± 59 mPa·s (308.15 K, 101 kPa); 148.8 ± 45 mPa·s (313.15 K, 101 kPa); 92.1 ± 28 mPa·s (323.15 K, 101 kPa).
Consider `Cc1cccc2ccccc12`, for which the viscosity runs as follows: (303.15 K, 100 kPa) 2.58 ± 0.17 mPa·s and 2.62 ± 0.065 mPa·s and 2.582 mPa·s; (323.15 K, 100 kPa) 1.75 ± 0.11 mPa·s and 1.75 ± 0.044 mPa·s and 1.748 mPa·s.
For the setting “323.15 K, 101 kPa”, `NCCNCCO.O=S(=O)([N-]S(=O)(=O)C(F)(F)F)C(F)(F)F.[Li+]` returned a viscosity of 735.9 ± 140 mPa·s.
For the compound `O=[N+]([O-])c1ccccc1O`, the viscosity is listed as 2.755 ± 0.026 mPa·s (313.15 K, 101 kPa); 2.68 ± 0.054 mPa·s (323.1 K, 101 kPa); 2.31 ± 0.023 mPa·s (323.15 K, 101.33 kPa).
